The results in this text go back to PMC12114840, “Exploring the Anticancer Properties of 1,2,3-Triazole-Substituted Andrographolide Derivatives” (Pharmaceuticals, 2025).

Experiment [1] deals with PANC-1 cells (pancreatic ductal adenocarcinoma). In words: Sulforhodamine B (SRB) antiproliferative assay, PANC-1. The class given is cell-based, human. As to conditions: Homo sapiens; PANC-1, 48 h, SRB; mean ± SEM of four to six independent experiments. As for the experimental part: (§1) The antiproliferative properties of andrographolide and all prepared derivatives (2–26) were evaluated against a panel of different cancer cell lines, including human pancreatic ductal adenocarcinoma (PANC-1), colorectal adenocarcinoma (HCT116), melanoma (A375), breast adenocarcinoma (MCF-7) and a non-tumorigenic colon (CCD-18Co) cell line using the sulforhodamine B assay.
(§2) Human breast adenocarcinoma MCF-7, pancreatic ductal adenocarcinoma PANC-1, melanoma A375, and non-tumorigenic colon CCD-18Co cell lines were purchased from ATCC (Rockville, MD, USA). Human colorectal adenocarcinoma HCT116 cells were kindly provided by B. Vogelstein (The Johns Hopkins Kimmel Cancer Center, Baltimore, MD, USA). Tumor cells were routinely cultured in RPMI-1640 medium with UltraGlutamine from Biowest (VWR, Carnaxide, Portugal) supplemented with 10% fetal bovine serum (FBS) from Biowest (VWR, Carnaxide, Portugal), except for the PANC-1 cells, which were grown in DMEM (4.5 g/L glucose) with stable L-glutamine and sodium pyruvate and supplemented with 10% FBS. The non-tumorigenic CCD-18Co cells were cultured in EMEM (Lonza, VWR, Carnaxide, Portugal), supplemented with 10% FBS. All cells were incubated at 37 °C in a humidified atmosphere of 5% CO2. Routine mycoplasma testing was performed using the MycoAlert™ PLUS mycoplasma detection kit (Lonza).
(§3) For the evaluation of the compound effect on cell proliferation, human cell lines were seeded in 96-well plates at a density of 5.0 × 10^3 (HCT116, MCF-7, PANC-1, A375, and CCD-18Co) cells per well, for 24 h. Cells were then treated with serial dilutions of the compound (ranging from 0.63 to 30 µM), for an additional 48 h incubation period. The growth inhibitory effects were assessed by SRB assay, as described in [58], and the half-maximal inhibitory concentration (IC50 values) were determined for each cell line using the GraphPad Prism software version 7.0 (La Jolla, CA, USA). Culture medium containing a maximum of 0.05% dimethyl sulfoxide (DMSO) was used as negative control.

For experiment [2], the system named is HCT116 cells (colorectal adenocarcinoma). In words: Sulforhodamine B (SRB) antiproliferative assay, HCT116. It is filed as cell-based. The following applies: Homo sapiens, HCT-116, HCT116, 48 h, mean ± SEM of four to six independent experiments. On the procedure: as §1, §2, §3
The test system of the next experiment is A375 cells (melanoma). Put plainly: Sulforhodamine B (SRB) antiproliferative assay, A375. It is filed as cell-based. The following applies: Homo sapiens, A-375, A375, 48 h, mean ± SEM of four to six independent experiments. As for the experimental part: as §1, §2, §3
In experiment [3] the test system is MCF-7 cells (breast adenocarcinoma). Put plainly: Sulforhodamine B (SRB) antiproliferative assay, MCF-7. As to conditions: Homo sapiens, MCF7, MCF-7, 48 h, mean ± SEM of four to six independent experiments. It is filed as cell-based. As for the experimental part:
as §1, §2, §3

The test system of experiment [4] is CCD-18Co cells (non-tumorigenic colon). Put plainly: Sulforhodamine B (SRB) antiproliferative assay, CCD-18Co. It is filed as cell-based. The following applies: Homo sapiens, CCD-18Co non-tumorigenic, 48 h, mean ± SEM of four to six independent experiments. As for the experimental part:
as §1, §2, §3

Consider `C=C1CC[C@@H]2[C@](C)(CO)[C@H](O)CC[C@@]2(C)[C@@H]1C/C=C1/C(=O)OC[C@H]1O` [Compound 1, andrographolide], for which the IC50 in experiment [1] was 3.1 ± 0.1 µM; in experiment [2] it was 5.1 ± 1.5 µM; in the experiment with A375 cells (melanoma), 4 ± 0.1 µM; in experiment [3], 13.5 ± 0.5 µM; in experiment [4] it was 6.2 ± 1.1 µM.

As for `C=C1CC[C@@H]2[C@](C)(COC(C)=O)[C@H](OC(C)=O)CC[C@@]2(C)[C@@H]1C/C=C1/C(=O)OC[C@H]1OC(C)=O` [Compound 2, 3,14,19-Triacetyl Andrographolide], the IC50 was 1.9 ± 0.2 µM in experiment [1]; 1.4 ± 0.1 µM in experiment [2]; 1.2 ± 0.2 µM in the experiment with A375 cells (melanoma); 4.9 ± 0.1 µM in experiment [3]; 5.6 ± 1.3 µM in experiment [4].

For `C=C1CC[C@@H]2[C@](C)(COC(C)=O)[C@H](OC(C)=O)CC[C@@]2(C)[C@@H]1C[C@@H](N=[N+]=[N-])C1=CCOC1=O` [Compound 3, (12R)-azido-3,19-diacetoxy-14-deoxy-andrographolide], the IC50 in experiment [1] was 1.9 ± 0.1 µM; in experiment [2], 7.9 ± 2.1 µM; in the experiment on A375 cells (melanoma) it was 1.3 ± 0.1 µM; in experiment [3], 6.6 ± 0.1 µM; in experiment [4] it was 3.8 ± 0.7 µM.

Take `C=C1CC[C@@H]2[C@](C)(COC(C)=O)[C@H](OC(C)=O)CC[C@@]2(C)[C@@H]1C[C@H](N=[N+]=[N-])C1=CCOC1=O` [Compound 4, (12S)-azido-3,19-diacetoxy-14-deoxy-andrographolide]: the IC50 came to 3 ± 0.2 µM in experiment [1]; 1.5 ± 0.2 µM in experiment [2]; 1.2 ± 0.2 µM in the experiment with A375 cells (melanoma); 6.9 ± 0.8 µM in experiment [3]; 2.2 ± 0.8 µM in experiment [4].

For `C=C1CC[C@@H]2[C@](C)(COC(C)=O)[C@H](OC(C)=O)CC[C@@]2(C)[C@@H]1C[C@H](C1=CCOC1=O)n1cc(C(C)(C)O)nn1` [Compound 5, (12R)-4-(2-methyl-2-ol)-1,2,3-triazole-3,19-diacetoxy-14-deoxy-andrographolide], the IC50 worked out at 8.5 ± 1 µM in experiment [1]; 8.4 ± 1.1 µM in experiment [2]; 7.7 ± 1.3 µM with A375 cells (melanoma); 25 ± 3 µM in experiment [3]; 7.1 ± 2.6 µM in experiment [4].

On to `C=C1CC[C@@H]2[C@](C)(COC(C)=O)[C@H](OC(C)=O)CC[C@@]2(C)[C@@H]1C[C@H](C1=CCOC1=O)n1cc(C(=O)OCC)nn1` [Compound 6, (12R)-4-propriolate-1,2,3-triazole-3,19-diacetoxy-14-deoxy-andrographolide], for which the IC50 in experiment [1] was determined as 3.4 ± 0.9 µM; in experiment [2] it was 1.2 ± 0.1 µM; in the experiment with A375 cells (melanoma), 1.3 ± 0.3 µM; in experiment [3], 3.8 ± 0.2 µM; in experiment [4], 4.4 ± 0.2 µM.

For `C=C1CC[C@@H]2[C@](C)(COC(C)=O)[C@H](OC(C)=O)CC[C@@]2(C)[C@@H]1C[C@H](C1=CCOC1=O)n1cc(CNC(=O)OC(C)(C)C)nn1` [Compound 7, (12R)-4-(tert-butylmethyl carbamate)-1,2,3-triazole-3,19-diacetoxy-14-deoxy-andrographolide], the IC50 was 4.1 ± 0.3 µM in experiment [1]; 1.6 ± 0.4 µM in experiment [2]; 3.6 ± 0.9 µM with A375 cells (melanoma); 18 ± 0.1 µM in experiment [3]; 12.9 ± 2.2 µM in experiment [4].

For `C=C1CC[C@@H]2[C@](C)(COC(C)=O)[C@H](OC(C)=O)CC[C@@]2(C)[C@@H]1C[C@H](C1=CCOC1=O)n1cc(Cc2ccccc2)nn1` [Compound 8, (12R)-4-benzyl-1,2,3-triazole-3,19-diacetoxy-14-deoxy-andrographolide], the IC50 was 3.1 ± 0.4 µM in experiment [1]; 2.1 ± 0.6 µM in experiment [2]; 23 ± 2 µM in the experiment with A375 cells (melanoma); 15.5 ± 0.5 µM in experiment [3]; 8.7 ± 1.9 µM in experiment [4].

Regarding `C=C1CC[C@@H]2[C@](C)(COC(C)=O)[C@H](OC(C)=O)CC[C@@]2(C)[C@@H]1C[C@@H](C1=CCOC1=O)n1cc(Cc2ccccc2)nn1` [Compound 9, (12S)-4-benzyl-1,2,3-triazole-3,19-diacetoxy-14-deoxy andrographolide], the IC50 in experiment [1] turned out to be 2 ± 0.1 µM; in experiment [2], 1.9 ± 0.6 µM; in the experiment with A375 cells (melanoma) it was 2.1 ± 0.3 µM; in experiment [3], 8.1 ± 0.1 µM; in experiment [4] it was 3.8 ± 0.9 µM.
